Reference: patent US5481013A, “Carboxylic acid derivatives” (Ciba-Geigy Corporation, priority 1992, dated 1996)

What was measured:
Assay type in all cases: in vivo
[1] = system: Nilaparvata lugens; assay: Activity against Nilaparvata lugens (spray on rice plants); details: 504 h, 400 ppm spray on rice plants, larvae in stages 2 and 3, evaluated after 21 days, read-out: percentage reduction in population (% activity)
Procedure: Rice plants are treated with a spray mixture prepared with an aqueous emulsion and comprising 400 ppm of the active ingredient. After the spray coating has dried on, the rice plants are populated with plant hopper larvae in stages 2 and 3. The test is evaluated after 21 days. The percentage reduction in population (% activity) is determined by comparing the number of surviving plant hoppers on the treated plants with the number of plant hoppers on the untreated plants. […] An activity of over 80% is shown, in particular, by compound Nos. 1.01, 2.01 to 2.03, 2.07, 2.08, 2.10 to 2.16, 2.20, 2.22, 2.23, 2.26, 3.01, 4.01 to 4.06, 4.20, 5.01 to 5.06, 5.08, 5.10 to 5.12, 5.15, 5.16 and 5.20 to 5.25.

[2] = system: Nilaparvata lugens; assay: Systemic activity against Nilaparvata lugens; details: 144 h, pots with rice plants in 400 ppm aqueous emulsion solution, larvae in stages 2 and 3, evaluated 6 days later, read-out: percentage reduction in population (% activity)
Procedure: Pots containing rice plants are placed into an aqueous emulsion solution comprising 400 ppm of the active ingredient. The rice plants are subsequently populated with larvae in stages 2 and 3. The test is evaluated 6 days later. The percentage reduction in population (% activity) is determined by comparing the numbers of plant hoppers on the treated plants with those on the untreated plants.

[3] = system: Myzus persicae; assay: Systemic activity against Myzus persicae; details: roots of pea seedlings in 400 ppm spray mixture, 20° C., evaluated after 3 and 6 days, read-out: percentage reduction in population (% activity)
Procedure: Pea seedlings are infected with Myzus persicae, the roots of the plants are then placed into a spray mixture comprising 400 ppm of the active ingredient, and the plants are incubated at 20° C. The test is evaluated after 3 and 6 days. The percentage reduction in population (% activity) is determined by comparing the number of dead aphids on the treated plants with those on the untreated plants.

[4] = system: Dermanyssus gallinae; assay: Activity against Dermanyssus gallinae; details: 72 h, 10 ppm solution, mites in different development stages, after 3 days
Procedure: 2 to 3 ml of a solution comprising 10 ppm of active ingredient and approximately 200 mites in different development stages are placed into a glass container which is open at the top. The container is then sealed with a cottonwool ball, shaken for 10 minutes until the mites are wetted completely, and then briefly turned over so that the remaining test solution can be absorbed by the cottonwool. After 3 days, the mortality of the mites is determined by counting the dead individuals; it is given as a percentage.

[5] = system: adult Anthonomus grandis; assay: Activity against adult Anthonomus grandis; details: 72 h, 400 ppm spray on young cotton plants, adults, evaluated after 3 days, read-out: percentage reduction in population or in feeding damage (% activity)
Procedure: Young cotton plants are sprayed with a spray mixture prepared with an aqueous emulsion and comprising 400 ppm of the active ingredient. After the spray coating has dried on, the cotton plants are populated with 10 adult Anthonomus grandis and placed into a plastic container. The test is evaluated after 3 days. The percentage reduction in population, or the percentage reduction in feeding damage (% activity), is determined by comparing the number of dead beetles and the feeding damage on the treated plants with those on the untreated plants.

O=C(CC=C(F)F)OCCOc1ccc(Oc2ccccc2)cc1 [Compound 1.01, 2-(4-phenoxyphenoxy)ethyl-4,4-difluorobut-3-enoate]
> 80%: activity at 400 ppm [1] | activity at 400 ppm [2] | activity at 400 ppm [3] | mortality at 10 ppm [4] | activity at 400 ppm [5]

O=C(CCCCCC=C(F)F)OCCOc1ccc(Oc2ccccc2)cc1 [Compound 3.01]
> 80%: activity at 400 ppm [1] | activity at 400 ppm [2] | activity at 400 ppm [5]
